Experiments:
[1] = system: larval zebrafish; assay: Light/dark preference (phototaxis) assay; format: in vivo, Zebrafish (Danio rerio); conditions: for light/dark preference: last two minutes of each trial, last four trials
Description: Following this, whether the effects of AS1 were restricted to somatosensation or were generalizable to other aversive stimuli were tested. Thus, the effects of AS1 on light/dark preference were tested. Zebrafish larvae prefer white light environments to dark environments and this preference is inhibited by anxiolytics, analagous to studies in rodents (Lau et al., Proc. Natl. Acad. Sci. U.S.A 2011; 108:2581-2586; Burgess et al., Curr. Biol. 2010; 20:381-386). To measure light/dark preference, larval zebrafish were placed in a square arena and given the choice between a bright white light and total darkness, and the number of larvae on each side was quantified at 30 second intervals. Five 4-minute trials were performed, where the light and dark sides of the arena were reversed between trials. […] Given the precise control over stimulus luminosity in this assay, the effects of altering the intensity of the dark stimulus were explored next. In this gradient version of the phototaxis assay, larval zebrafish were given the choice between a bright white environment and one of six potential shades of darkness, ranging from light gray to solid black. […] This implies that the valence of non-painful noxious stimuli is precisely encoded in an intensity-dependent manner, and that AS1 exerts its effects in proportion to the intensity of the stimulus.
Light/dark preference (phototaxis) assay. In the light/dark preference assay, randomly-selected 6 dpf larval zebrafish (N of 30 to 40) were carefully pipetted onto a 10 cm square petri dish using a 10 mL pipette pump equipped with a glass wide-bored Pasteur pipet. As much E2 media as possible was carefully removed using the same pipet. For single incubation experiments, 30 mL of 1× solutions of the control or test chemical was added to each petri dish, and fish were incubated for 10 minutes at 28.5° C. For double incubation experiments, 15 mL of 1× solutions containing control (DMSO) or test chemicals was added to the larvae-containing petri dish. Following a ten-minute incubation period, 15 mL of the second incubation solution (1× control or test chemical +/−2× AS1) was added to the petri dish, and the fish were incubated for a second ten minute block. The final concentration of DMSO in all solutions was 1%. In all double-incubation experiments, the final concentration of AS1 was 2.5 μM. These petri dishes were then positioned over a horizontally-oriented computer monitor displaying a PowerPoint presentation. For standard light/dark preference assays, a blank white slide was initially presented for one minute, after which the presentation would automatically advance to a slide in which half of the display was black. The petri dish with larvae was positioned such that exactly half was directly over the dark side, and the other half was directly over the light side. After four minutes, the presentation automatically advanced to a slide in which the black and white halves switched places. A total of five four-minute trials, with the dark/light halves automatically switching position between trials, were recorded. For the gradient phototaxis assay, experiments were performed identically, except that the “dark” half of the powerpoint presentation was one of six shades of gray.
In all experiments, an initial still frame of video was taken during the minute where the blank slide was presented in order to quantify the total number of fish in the experiment. Following this, still frames were taken at 30 second intervals for each trial ([…]), and the number of fish present in the light half of the arena were counted. To generate the graphs that looked at swimming patterns over time in a trial (e.g., FIG. 3D), the average percentage of fish in the light at each time point (T=0, T=30, etc.) was calculated across all five trials. […]

[2] = system: trigeminal neurons; assay: CaMPARI neuronal activity assay; format: in vivo, Zebrafish (Danio rerio); conditions: 5 μM AS1; 28.5° C. or 37.5° C.
Text: Brain regions associated with dopaminergic circuitry are specifically activated in the concurrent presence of AS1 and noxious stimuli. It was next sought to determine in an unbiased manner where in the zebrafish nervous system AS1 was exerting its effects by examining neuronal activity in the context of noxious stimuli. […] Many analgesics can act upon multiple different levels of pain transduction circuitry. For example, MORs can be found upon peripheral somatosensory neurons, spinal cord neurons, and numerous neuronal populations in the brain, and both exogenous and endogenous opioids can modulate the activity of any of these neurons (Corder et al., Annu. Rev. Neurosci. 2018; 41: 453-473). To investigate whether peripheral somatosensory neurons were also influenced by AS1, a neuronal activity assay upon transgenic zebrafish expressing the genetically-encoded calcium indicator CaMPARI in all neurons was performed. This fluorescent protein permanently photoconverts from green to red in the presence of a 405 nm light and high calcium (a proxy for neuronal activity), allowing “snapshots” of neuronal activity at a single time point (Fosque et al., Science. 2015; 347(6223):755-760). Fish were exposed to conditions of 28.5° C. or 37.5° C. with or without AS1 in the presence of a blue light, and then the trigeminal ganglia (TG) were surveyed for photoconverted neurons. […]

SMILES: CC(C)c1ccc(C(=O)Nc2ccncc2)cc1 [AS1, 4-propan-2-yl-N-pyridin-4-ylbenzamide]
- light/dark preference ([1]; 1 μM AS1): significantly prefer the light side of the arena
- gradient phototaxis: choice between bright white (shade 1) and darker shades 2-7 ([1]; 2.5 μM AS1): increasingly prefer the contrasting dark shade
- light/dark preference ([1]; 2.5 μM AS1): significantly prefer the dark
- light/dark preference, dose dependence ([1]; AS1-treated vs vehicle-treated larvae): reversed light/dark preference in a dose-dependent manner
- Number of photoconverted trigeminal neurons, AS1-treated vs control [2]: No significant difference

— patent publication US20250177366A1, “COMPOSITIONS AND METHODS FOR ALLEVIATING PAIN AND REDUCING ADVERSIVENESS OF STIMULI” (UNIVERSITY OF WASHINGTON, priority 2021, published 2025)
